Format in all cases: cell-based, Human
For one experiment, the system named is GR mRNA. Nature of the experiment: RT-qPCR of GR mRNA after time-dependent AR degrader treatment. The conditions noted are these: 30 nM dexamethasone, up to 15 days. The procedure: (§1) 5 million of LNCaP and CWR22PC cells per dish were plated in five 15-cm dishes in 20 mL of RPMI-1640 media supplemented with 10% charcoal-stripped serum (CSS) and cultured at 37° C. for 24 hours. Cells were treated with 30 nM of dexamethasone and with 100 nM of ARD1 or ARD2 and maintained at 37° C. until harvest. On Day 0, 6, 10, 13, and 15, cells were trypsinized, cell pellets were washed with 1XPBS and then divided for mRNA and protein preparation.
(§2) Adherent cells or cell pellets harvested for mRNA analysis were first washed once with PBS and then resuspended in 600 µL of RLT lysis buffer (Qiagen Inc.) supplemented with 1% of betamercaptoethanol. RNA was extracted by QIAcube using the RNeasy Mini QIAcube kit (Qiagen#74116) according to manufacturer’s instructions. The extracted RNA samples were then quantified using a Nanodrop 8000 Spectrophotometer. RT-qPCR reactions were set up in triplicate using 3 µL of 3 ng/ µL of RNA in 7 µL of pre-mixed SensiFAST™ SYBR No-ROX One-Step Kit reagents (BIOLINE# BIO-98005). The RT-qPCR reactions were run on a Bio-Rad CFX384 Real-Time PCR System and data was plotted with GraphPad Prism 8 software.
2 million of LNCaP and CWR22PC cells per dish were plated in five 10-cm dishes in 10 mL of RPMI-1640 media supplemented with 10% charcoal-stripped serum (CSS) and cultured at 37° C. for 24 hours. […]
On the technique in general: Real-time PCR tracks product formation cycle by cycle.

The test system of another experiment is GR protein. Nature of the experiment: Western blot of GR protein after dose-dependent or time-dependent AR degrader treatment. The conditions noted are these: LNCaP and CWR22PC cells, 3 days, increasing doses 3-1000 nM. Here is the method: (§3) LNCaP and CWR22PC cells were plated in seven 15-cm dishes (Corning#353025) at a density of 5 million cells per dish in RPMI-1640 media supplemented with 10% charcoal-stripped serum (CSS; OmegaScientific#FB4). After 24 hours, the cells were treated with 0, 3, 10, 30, 100, 300 and 1000 nM of ARD1 or ARD2 and incubated at 37° C. for 3 days. The cells were then trypsinized (Corning#25-053-CI) and harvested for transcript (RT-qPCR) and protein (western blot) analysis.
as §1
Cell pellets were washed with PBS and lysed in RIPA buffer (VWR#AAJ63306-AK) supplemented with […] (VWR #AAJ65789-LQ). Resuspended cells were briefly sonicated for ~30 seconds using a probe sonicator and incubated on ice for 40 minutes, followed with centrifugation at 12,000 rpm for 15 minutes at 4° C. to collect the supernatant. Protein concentration was quantitated using Quick Start™ Bradford Protein Assay Kit (Bio-Rad #5000201). […]
Background: In western blotting, separated proteins are transferred to a membrane and probed.

The subject of experiment [1] is GR target genes GILZ, PER1, KLF9, SGK1. Nature of the experiment: RT-qPCR of GR target genes after time-dependent AR degrader treatment. The note with it: LNCaP and CWR22PC cells; 100 nM degrader; 30 nM dexamethasone; 0, 6, 10, 13, 15 days. Here is the method:
as §2

Another experiment deals with AR mRNA. Nature of the experiment: RT-qPCR of AR mRNA after dose-dependent AR degrader treatment. The note with it: LNCaP and CWR22PC cells, 3 days, increasing doses 3-1000 nM. Here is the method: as §3, §2
LNCaP and CWR22PC cells were plated in seven 10-cm dishes (Corning#353003) at a density of 2 million cells per dish in RPMI-1640 media supplemented with 10% charcoal-stripped serum (CSS; OmegaScientific#FB4). […]

On to `N#Cc1ccc(O[C@H]2CC[C@H](NC(=O)c3ccc(N4CCC(CN5CCN(c6cc7c(cc6F)C(=O)N(C6CCC(=O)NC6=O)C7=O)CC5)CC4)nn3)CC2)cc1Cl` (stereo partly drawn) [ARV-110, N-[trans-4-(3-chloro-4-cyanophenoxy)cyclohexyl]-6-[4-[[4-[2-(2,6-dioxo-3-piperidinyl)-6-fluoro-2,3-dihydro-1,3-dioxo-1H-isoindol-5-yl]-1-piperazinyl]methyl]-1-piperidinyl]-3-pyridazinecarboxamide], for which the GR transcript levels result in the experiment on GR mRNA (CWR22PC cells (moderate GR pre-treatment), 100 nM degrader) was “minimal”. Moreover, in the experiment with GR mRNA (GR-negative LNCaP cells, 100 nM ARV-110), the “upregulation of GR mRNA levels” value was ~ 7 fold. In addition, the GR protein levels result with GR protein is “minimally impacting”. Moreover, the “expression of GR target genes including GILZ, PER1, KLF9, and SGK1” value in experiment [1] is recorded as “most of the GR target genes are upregulated in a time dependent manner”. For the same molecule, the AR transcript levels entry with AR mRNA is reported as “minimally impacting”.
